{
  "source": "patent US20130005802A1",
  "about": "“TREATMENT OF WNT/FRIZZLED-RELATED DISEASES” (priority 2009, published 2013)",
  "system": "LEF/TCF transcription factor reporter (TOPFlash)",
  "assay": "TOPFlash reporter assay in HEK293 cells",
  "format": "cell-based",
  "conditions": "Homo sapiens",
  "procedure": "To obtain a Frizzled1-GFP stable cell line (Fzd1GFP-U2OS), U2OS cells were transfected with pCS2ratFrizzled1-GFP and pLKO.1 (10:1 ratio by weight), using the Nucleofection transfection protocol from Amaxa, and stable receptor expressing clones were selected using 1.5 μg/mL puromycin in the culture medium. For generating TOPFlash stable cell lines, HEK293 cells were transfected with p8xTOPFlash, the Renilla luciferase plasmid, and pLKO.1 at a ratio by weight of 10:3:1 and stable clones selected using 1 μg/mL puromycin in the growth medium. pLKO.1 was used to confer puromycin resistance to the stable clones.\nFor the TOPFlash Luciferase assay the TOPFlash stable cells were seeded in 150 μL growing medium/well in 96-well plates at 100% confluency. Fifty microliters of conditioned medium containing the chemical compounds to be tested or DMSO were added to each well. After an 8 hr treatment, the cells were then washed once with PBS, and lysed with 80 μL MPER solution (Pierce, Rockford, Ill.). Thirty microliters of cell lysate were used for measuring luciferase activity in a 96-well plate reader (FluoStar Optima, BMG Labtech, Chicago, Ill.).\nLEF/TCF transcription factor reporter (TOPFlash) assay is a general readout for canonical Wnt signaling pathways. […] A Renila luciferase plasmid was also generated to serve as an internal control.\nThe average TOPFlash reporter activity of Wnt3A plus DMSO treatment was set as 100%, and the relative reporter activity of Wnt3A plus the indicated concentration of niclosmide was calculated and plotted.\nThe compounds shown in Table 2 were purchased from Sigma-Aldrich (St. Louis, Mo.) or Chembridge (San Diego, Calif.). The activity of each of the compounds as a negative modulator of the Wnt/Frizzled signaling pathway was examined using the Top-flash assay, as described above.",
  "note": "Read-outs that look alike come from different tables or passages of the source.",
  "data": [
    {"smiles": "O=C(Nc1ccc([N+](=O)[O-])cc1Cl)c1cc(Cl)ccc1O", "note": "[niclosamide]", "values": [
      {"measurement": "IC50", "setting": "Wnt3A conditioned medium, read-out: IC50 of inhibition of Wnt3A stimulated TOPFlash reporter activity", "result": "500 ± 50", "unit": "nM"},
      {"measurement": "IC50", "setting": "read-out: TopFlash assay: IC50", "result": "< 1000", "unit": "nM"}
    ]}
  ]
}
